Experimental data from EP0374249A1, “METHOD OF STERILIZING PLANT POLLEN” (VSESOJUZNY NAUCHNO-ISSLEDOVATELSKY INST. SELSKOKHOZYAISTV. …, priority 1988, dated 1989).

Tests used:
[1] = tested on: Winterweizens Sorte Mir.onovskaya 808; assay: Field test of pollen sterilisation (gametocidal activity), winter wheat Mironovskaya 808; assay type: in vivo, Winterweizen; settings: 2% aqueous emulsion, 20 kg/ha; for Prozentsatz der Sterilität / Anzahl von Körnern der Ähre bei freier Bestäubung / Anzahl von Körnern der Ähre im Isolator: period V of organogenesis; for Anzahl von Körnern der Ähre bei freier Bestäubung: free pollination; for Anzahl von Körnern der Ähre im Isolator: isolated ears; for Prozentsatz des Ansetzens von Körnern bei freier Bestäubung: period V, non-isolated control ears = 100%
Source text: Als Emulgierungsmittel wird 0,1 Masse% Kalziumalkylbenzolsulfonat mit 12 bis 14 Kohlenstoffatomen hinzugefügt. Als Adjuvans fährt man in die Emulsion 0,01 Masse% Dimethylsulfoxid ein. Der Verbrauch an Präparat beträgt 20 kg/ha. Als Kontrolle dienen Pflanzen, behandelt mit einem Verdünner ohne Sterilisationsmittel.

[2] = tested on: Winterweizens Sorte Bezostaya 1; assay: Field test of pollen sterilisation, winter wheat Bezostaya 1; assay type: in vivo, Winterweizen; settings: 2% aqueous emulsion, 16 kg/ha; for Prozentsatz der Sterilität / Anzahl von Körnern der Ähre bei freier Bestäubung / Anzahl von Körnern der Ähre im Isolator: period V of organogenesis; for Anzahl von Körnern der Ähre bei freier Bestäubung: free pollination; for Anzahl von Körnern der Ähre im Isolator: isolated ears; for Prozentsatz des Ansetzens von Körnern bei breier Bestäubung: period V, non-isolated control ears = 100%
Source text: Pflanzen des Winterweizens Sorte Bezostaya 1 werden in der V. Periode der Organogenese durch Zerstäubung einer 2%igen wässrigen Emulsion von N-(2-Dimethylaminoäthyl)-maleaminsäure, N-(3-Dimethylaminopropyl)-maleaminsäure, N-Äthylmaleaminsäure, N-(2-Hydroxyäthyl)-maleaminsäure, N-Karbamoylmaleaminsäure mit Hilfe deiner Rückspritze behandelt. Die Emulsion enthält 0,1 Masse% Kalziumalkylbenzolsulfonat mit 12 bis 14 Kohlenstoffatomen. Als Adjuvans führt man in die Emulsion 0,01 Masse% Tetrahydrofuran ein.
Der Verbrauch an Präparat beträgt 16 kg/ha. Als Kontrolle dienen Pflanzen, behandelt mit einem Verdünner ohne Sterilisationsmitteln.

[3] = tested on: Sommerweizens Sorte Moskovskaya 35; assay: Field test of pollen sterilisation, spring wheat Moskovskaya 35; assay type: in vivo, Sommerweizen; settings: 1% aqueous emulsion, 10 kg/ha; for Prozentsatz der Sterilität / Anzahl von Körnern der Ähre bei freier Bestäubung / Anzahl von Körnern der Ähre im Isolator: period V of organogenesis; for Anzahl von Körnern der Ähre bei freier Bestäubung: free pollination; for Anzahl von Körnern der Ähre im Isolator: isolated ears; for Prozentsatz des Ansetzens von Körnern bei freier Bestäubung: period V, non-isolated control ears = 100%
Source text: Pflanzen des Sommerweizens Sorte Moskovskaya 35 werden in V. Periode der Organogenese (nach Kupermann) mit einer 1%igen wässrigen Emulsion von N-(2-Dimethyl-aminoäthyl)-maleaminsäure, N-(3-Dimethylaminopropyl)-maleaminsäure, N-Äthylmaleaminsäure, N-(2-Hydroxyäthyl) maleaminsäure bzw. N-Karbamoylmaleaminsäure behandelt. Die Emulsion enthält 0,5 Masse% Kalziumalkylbenzolsulfonat mit 12 bis 14 Kohlenstoffatomen als Emulgierungsmittel und 0,01 Masse% Dimethylformamid als Adjuvans. Der Verbrauch an Präparat beträgt 10 kg/ha. Als Kontrolle dienen Pflanzen, behandelt mit einem Verdünner ohne Sterilisationsmittel.

[4] = tested on: Sommerweizens Sorte Botanicheskaya 4; assay: Field test of pollen sterilisation, spring wheat Botanicheskaya 4; assay type: in vivo, Sommerweizen; settings: 1% aqueous emulsion, 6 kg/ha; for Prozentsatz der Sterilität / Anzahl von Körnern der Ähre bei freier Bestäubung / Anzahl von Körnern der Ähre im Isolator: period V of organogenesis; for Anzahl von Körnern der Ähre bei freier Bestäubung: free pollination; for Anzahl von Körnern der Ähre im Isolator: isolated ears; for Prozentsatz des Ansetzens von Körnern bei freier Bestäubung: period V, non-isolated control ears = 100%
Source text: Pflanzen des Sommerweizens Sorte Botanicheskaya 4 werden in der V. Periode der Organogenese (nach Kupermann) mit einer 1%igen Wässrigen Emulsion von N-(2-Dimethyl-aminoäthyl)-maleaminsäure, N-(3-Dimethylaminopropyl)-maleaminsäure, N-Äthylmaleaminsäure, N-(2-Hydroxyäthyl)-maleaminsäure bzw. N-Karbamoylmaleaminsäure behandelt. Die Emulsion enthält 0,5 Masse% Kalziumalkylbenzolsulfonat mit 12 bis 14 Kohlenstoffatomen und 0,01 Masse% Dimethylsulfoxid als Adjuvans. Der Verbrauch an Präparat beträgt 6 kg/ha. Als Kontrolle dienen Pflanzen, behandelt mit einem Verdünner ohne Sterilisationsmittel.

[5] = tested on: tetraploidem Roggen Sorte Belta; assay: Field test of pollen sterilisation, tetraploid rye Belta; assay type: in vivo; settings: 1% aqueous emulsion, 10 kg/ha; for Prozentsatz der Sterilität / Anzahl von Körnern der Ähre bei freier Bestäubung / Anzahl von Körnern der Ähre im Isolator: period V of organogenesis; for Anzahl von Körnern der Ähre bei freier Bestäubung: free pollination; for Anzahl von Körnern der Ähre im Isolator: isolated ears; for Prozentsatz des Ansetzens von Körnern bei freier Bestäubung: period V, non-isolated control ears = 100%
Source text: (§1) Die gametozide Aktivität der erfindungsgemässen Sterilisationsmittel war im Feldversuch in verschiedenen Bodenklimatischen Zonen mit Teilstücken von 10 m^2 Grösse in drei- bis viermaliger Wiederholung nachgewiesen. Jedes Sterilisationsmittel wurde mindestens 5 Jahre lang geprüft.
(§2) Die Entwicklung der Perioden der Organogenese wird zytologischüberwacht. Die Behandlung von Pflanzen mit dem Sterilisationsmittel erfolgt am Anfang der fünften Periode der Organogenese nach Kupermann.
(§3) Mit dem Ahrenschiebe verwirklicht man die Isolierung von Hauptähren und anderen Stockwerken in Pergamentbeuteln. Bei Weizen und Tritikale werden Einzelisolatoren verwendet. Bei Roggen schliesst man je Ähre 5 bis 7 verschiedene nebeneinander befindliche Pflanzen unter einen gemeinsamen Isolator ein. Bei Hirse wird jede Rispe getrennt isoliert. Der Sterilitätsprozentsatz (X) für Weizen, Roggen, Tritikale und Hirse wird nach folgender Formel [formula] ermittelt.
(§4) Die Kornzahl in nicht isolierten ähren von Kontrollpflanzen wird bedingt für 100% Ansetzen bei freier Bestäubung angenommen.
(§5) Um zuverlässige Angaben zu erhalten, verwendet man 20 bis 25 Isolatoren jeder Wiederholung für Weisen und Tritikale, 10 bis 15 Gruppenisolatoren jeder Wiederholung für Roggen und Hirse.
Pflanzen von tetraploidem Roggen Sorte Belta werden in der V. Periode der Organogenese (nach Kupermann) mit einer 1%igen wässrigen Emulsion von N-(2-Dimethylamino- .äthyl)maleaminsäure, N-(3-Dimethylaminopropyl)maleaminsäure, N-Äthylmaleaminsäure, N-(2-Hydroxyäthyl)maleaminsäure bzw. Karbamoylmaleaminsäure behandelt. Die Emulsion enthält 0,5 Masse% Kalziumalkylbenzolsulfonat mit 12 bis 14 Kohlenstoffatomen und 0,01 Masso% Tetrahydrofuran. Der Verbrauch an Präparat beträgt 10 kg/ha. Die Prüfergebnisse sind in der Tabelle 5 dargestellt. […] Periode der Organogenese erhalten.

[6] = tested on: diploidem Roggen Sorte Voskhod 2; assay: Field test of pollen sterilisation, diploid rye Voskhod 2; assay type: in vivo; settings: 1% aqueous emulsion, 10 kg/ha; for Prozentsatz der Sterilität / Anzahl von Körnern der Ähre bei freier Bestäubung / Anzahl von Körnern der Ähre im Isolator: period V of organogenesis; for Anzahl von Körnern der Ähre bei freier Bestäubung: free pollination; for Anzahl von Körnern der Ähre im Isolator: isolated ears; for Prozentsatz des Ansetzens von Körnern bei freier Bestäubung: period V, non-isolated control ears = 100%
Source text: Die Emulsion enthält 0,1 Masse% Kalziumalkylbenzolsulfonat und 0,01 Masse% Dimethylformamid. Der Verbrauch an Präparat beträgt 10 kg/ha. Als Kontrolle dienen Pflanzen, behandelt mit einem Lösungsmittel ohne Sterilisationsmittel.

[7] = tested on: diploidem Roggen Sorte Chulpan; assay: Field test of pollen sterilisation, diploid rye Chulpan; assay type: in vivo; settings: 1% aqueous emulsion, 8 kg/ha; for Prozentsatz der Sterilität / Anzahl von Körnern der Ähre bei freier Bestäubung / Anzahl von Körnern der Ähre im Isolator: period V of organogenesis; for Anzahl von Körnern der Ähre bei freier Bestäubung: free pollination; for Anzahl von Körnern der Ähre im Isolator: isolated ears; for Prozentsatz des Ansetzens von Körnern bei freier Bestäubung: period V, non-isolated control ears = 100%
Source text: (§6) Mit dem Ahrenschiebe verwirklicht man die Isolierung von Hauptähren und anderen Stockwerken in Pergamentbeuteln. […] Bei Roggen schliesst man je Ähre 5 bis 7 verschiedene nebeneinander befindliche Pflanzen unter einen gemeinsamen Isolator ein. […] Der Sterilitätsprozentsatz (X) für Weizen, Roggen, Tritikale und Hirse wird nach folgender Formel [formula] ermittelt.
Die Emulsion enthält 0,01 Masse% Tetranydrofuran und 0,1 Masse% Kalziumalkylbenzolsulfonat mit 12 bis 14 Kohlenstoffatomen. Der Verbrauch an Präparat beträgt 8 kg/ha. Als Kontrolle dienen Pflanzen, behandelt mit einem Verdünner ohne Sterilisationsmittel.

[8] = tested on: diploidem Roggen Sorte Talovskaya 12; assay: Field test of pollen sterilisation, diploid rye Talovskaya 12; assay type: in vivo; settings: 1% aqueous emulsion, 6 kg/ha; for Prozentsatz der Sterilität / Anzahl von Körnern der Ähre bei freier Bestäubung / Anzahl von Körnern der Ähre im Isolator: period V of organogenesis; for Anzahl von Körnern der Ähre bei freier Bestäubung: free pollination; for Anzahl von Körnern der Ähre im Isolator: isolated ears
Source text: as §6
Pflanzen von diploidem Roggen Sorte Talovskaya 12 werden in der V. Periode der Organogenese (nach Kupermann) mit einer 1%igen wässrigen Emulsion von N-(2-Di- methylaminoäthyl)-maleaminsäure, N-(3-Dimethylaminopropyl)-maleaminsäure, N-Äthylmaleaminsäure, N-(2-Hydroxyäthyl)maleaminsäure, N-Karbamoylmaleaminsäure behandelt. Die Emulsion enthält 0,01 Masse% Dodezylsulfat und 0,1 Masse% Kalziumalkylbenzolsulfonat mit 12 bis _14 Kohlenstoffatomen. Der Verbrauch an Präparat beträgt 6 kg/ha. Als Kontrolle dienen Pflanzen, behandelt mit einem Verdünner ohne Sterilisationsmittel.

[9] = tested on: Hirse Sorte Mironovskoe 94; assay: Field test of pollen sterilisation, millet Mironovskoe 94; assay type: in vivo; settings: 1% aqueous emulsion, 8 kg/ha; for Prozentsatz der Sterilität / Anzahl von Körnern der Rispe bei freier Bestäubung / Anzahl von Körnern der Rispe im Isolator: period V of organogenesis; for Anzahl von Körnern der Rispe bei freier Bestäubung: free pollination; for Anzahl von Körnern der Rispe im Isolator: isolated panicles; for Prozentsatz des Ansetzens von Körnern bei freier Bestäubung: period V, non-isolated control = 100%
Source text: as §1, §2, §3, §4, §5
Pflanzen der Hirse Sorte Mironovskoe 94 werden in der V. Periode der Organogenese (nach Kupermann) mit einer 1%igen wässrigen Emulsion von N-(2-Dimethylaminoäthyl)maleaminsäure, N-(3-Dimethylaminopropyl)maleaminsäure, N-Äthylmaleaminsäure, N-(2-Hydroxyäthyl)maleaminsäure, N-Karbamoylmaleaminsäure behandelt. Die Emulsion enthält 0,01 Masse% Dimethylaulfoxid und 0,1 Masse% Kalziumalkylbenzolsulfonat mit 12 bis 14 Kohlenstoffatomen. Der Verbrauch an Präparat beträgt 8 kg/ha. Als Kontrolle dienen Pflanzen, behandelt mit einem Verdünner ohne Sterilisationsmittel. Die Prüfergebnisse sind in der Tabelle 12 dargestellt. […] Periode der Organogenese erhalten.

[10] = Toxicity test in animals (LD50); settings: in vivo; animal test, per kg animal weight; species and route not given
Source text: Alle erfindungsgemässen N-substituierten Maleaminsäuren, welche als Sterilisationsmittel zur Verwendung kommen, waren auf die Toxizität im Tierversuch geprüft. Die Prüfergebnisse haben ergeben, dass die angegebenen Verbindungen von schwacher oder mittlerer Toxizität sind.

[11] = tested on: Hirse Sorte K-9693 Kormovoe 1; assay: Field test of pollen sterilisation, millet K-9693 Kormovoe 1; assay type: in vivo; settings: 1% aqueous emulsion, 6 kg/ha
Source text: as §1, §2, §3, §4, §5
Pflanzen der Hirse Sorte K-9693 Kormovoe 1 werden in der V. Periode der Organogenese (nach Kupermann) mit einer 1%igen wässrigen Emulsion von N-(2-Dimethylaminoäthyl) maleaminsäure, N-(3-Dimethylaminopropyl)maleaminsäure, N-Äthylmaleaminsäure, N-Karbamoylmaleaminsäure behandelt. Die Emulsion enthält 0,01 Masse% Dimethylformamid und 0,1 Masse% Kalziumalkylbenzolsulfonat mit 12 bis 14 Kohlenstoffatomen.
Der Verbrauch an Präparat beträgt 6 kg/ha. Als Kontrolle dienen Pflanzen, behandelt mit einem Verdünner ohne Sterilisationsmittel. Die Prüfergebnisse sind in der Tabelle13 dargestellt. […] Periode der Organogenese erhalten.

SMILES	Prozentsatz der Sterilität [1]	Anzahl von Körnern der Ähre bei freier Bestäubung [1]	Anzahl von Körnern der Ähre im Isolator [1]	Prozentsatz des Ansetzens von Körnern bei freier Bestäubung [1]	Prozentsatz der Sterilität [2]	Anzahl von Körnern der Ähre bei freier Bestäubung [2]	Anzahl von Körnern der Ähre im Isolator [2]	Prozentsatz des Ansetzens von Körnern bei breier Bestäubung [2]	Prozentsatz der Sterilität [3]	Anzahl von Körnern der Ähre bei freier Bestäubung [3]	Anzahl von Körnern der Ähre im Isolator [3]	Prozentsatz des Ansetzens von Körnern bei freier Bestäubung [3]	Prozentsatz der Sterilität [4]	Anzahl von Körnern der Ähre bei freier Bestäubung [4]	Anzahl von Körnern der Ähre im Isolator [4]	Prozentsatz des Ansetzens von Körnern bei freier Bestäubung [4]	Prozentsatz der Sterilität [5]	Anzahl von Körnern der Ähre bei freier Bestäubung [5]	Anzahl von Körnern der Ähre im Isolator [5]	Prozentsatz des Ansetzens von Körnern bei freier Bestäubung [5]	other results
CCNC(=O)/C=C\C(=O)O [Beispiel 3, N-Äthylmaleaminsäure]	99,5%	40,7	0,2	95,5%	99,4%	42,1	0,2	98,1%	98,5%	26,7	0,4	97,1%	100,0%	28,2	0,0	93,7%	99,4%	52,3	0,3	95,4%	Prozentsatz der Sterilität [6]: 100,0%; Anzahl von Körnern der Ähre bei freier Bestäubung [6]: 53,0; Anzahl von Körnern der Ähre im Isolator [6]: 0,0; Prozentsatz des Ansetzens von Körnern bei freier Bestäubung [6]: 96,0%; Prozentsatz der Sterilität [7]: 99,4%; Anzahl von Körnern der Ähre bei freier Bestäubung [7]: 49,8; Anzahl von Körnern der Ähre im Isolator [7]: 0,3; Prozentsatz des Ansetzens von Körnern bei freier Bestäubung [7]: 87,7%; Prozentsatz der Sterilität [8]: 100,0%; Anzahl von Körnern der Ähre bei freier Bestäubung [8]: 50,1; Anzahl von Körnern der Ähre im Isolator [8]: 0,0; Prozentsatz der Sterilität [9]: 100,0%; Anzahl von Körnern der Rispe bei freier Bestäubung [9]: 200,8; Anzahl von Körnern der Rispe im Isolator [9]: 0,0; Prozentsatz des Ansetzens von Körnern bei freier Bestäubung [9]: 88,3%; LD50 [10]: 2000 mg/kg
O=C(O)/C=C\C(=O)NCCO [Beispiel 4, N-(2-Hydroxyäthyl)-maleaminsäure]	99,3%	39,8	0,3	93,4%	100,0%	37,1	0,0	86,5%	100,0%	27,0	0,0	98,2%	100,0%	28,7	0,0	95,3%	99,6%	51,6	0,2	94,2%	Prozentsatz der Sterilität [6]: 98,4%; Anzahl von Körnern der Ähre bei freier Bestäubung [6]: 52,2; Anzahl von Körnern der Ähre im Isolator [6]: 0,8; Prozentsatz des Ansetzens von Körnern bei freier Bestäubung [6]: 94,6%; Prozentsatz der Sterilität [7]: 99,8%; Anzahl von Körnern der Ähre bei freier Bestäubung [7]: 50,1; Anzahl von Körnern der Ähre im Isolator [7]: 0,1; Prozentsatz des Ansetzens von Körnern bei freier Bestäubung [7]: 88,2%; Prozentsatz der Sterilität [8]: 99,3%; Anzahl von Körnern der Ähre bei freier Bestäubung [8]: 53,2; Anzahl von Körnern der Ähre im Isolator [8]: 0,3; Prozentsatz des Ansetzens von Körnern bei freier Bestäubung ([8]; period V, non-isolated control ears = 100%): 94,7%; Prozentsatz der Sterilität [9]: 100,0%; Anzahl von Körnern der Rispe bei freier Bestäubung [9]: 215,0; Anzahl von Körnern der Rispe im Isolator [9]: 0,0; Prozentsatz des Ansetzens von Körnern bei freier Bestäubung [9]: 94,6%; LD50 [10]: 1500 mg/kg
CN(C)CCNC(=O)/C=C\C(=O)O [Beispiel 54, N-(2-Dimethylaminoäthyl) maleaminsäure]																					Prozentsatz der Sterilität ([11]; period V of organogenesis): 100,0%; Anzahl von Körnern der Rispe bei freier Bestäubung ([11]; period V of organogenesis, free pollination): 124,2; Anzahl von Körnern der Rispe im Isolator ([11]; period V of organogenesis, isolated panicles): 0,0; Prozentsatz des Ansetzens von Körnern bei freier Bestäubung ([11]; period V, non-isolated control = 100%): 84,7%
